“And” between values parts separate entries of the source, which are not always exact repeats. Identical values can stand only once.
Conditions: Liquid; for viscosity: Falling or rolling sphere viscometry; for mass density: Vibrating tube method

CCCCn1cc[n+](C)c1.F[B-](F)(F)F [1-butyl-3-methylimidazolium tetrafluoroborate]
Conditions | mass density | viscosity
273.15 K, 100 kPa | 1219.64 kg/m3 | 543 mPa·s and 542.8 mPa·s
273.15 K, 101.33 kPa | 1219.5 kg/m3 and 1219.64 kg/m3 | 510.8 mPa·s and 511 mPa·s
278.15 K, 101.33 kPa | 1215.79 kg/m3 | 353 mPa·s and 352.9 mPa·s
283.15 K, 100 kPa | 1212.22 kg/m3 | 263.7 mPa·s and 263.8 mPa·s
283.15 K, 101.33 kPa | 1212.07 kg/m3 and 1212.22 kg/m3 | 250.7 mPa·s and 250.6 mPa·s
283.15 K, 800 kPa | 1212.53 kg/m3 | 266.3 mPa·s
283.15 K, 11000 kPa | 1217.32 kg/m3 | 302.2 mPa·s
283.15 K, 24900 kPa | 1223.58 kg/m3 | 359.1 mPa·s
283.15 K, 49600 kPa | 1234.03 kg/m3 | 484.8 mPa·s
283.15 K, 75300 kPa | 1244.07 kg/m3 | 655.9 mPa·s
283.15 K, 100600 kPa | 1253.28 kg/m3 | 875 mPa·s
288.15 K, 101.33 kPa | 1208.38 kg/m3 | 182.4 mPa·s
293.15 K, 100 kPa | 1204.98 kg/m3 | 142.1 mPa·s and 142 mPa·s
293.15 K, 101.33 kPa | 1204.83 kg/m3 and 1204.98 kg/m3 | 135.6 mPa·s and 135.7 mPa·s
298.15 K, 100 kPa | 1201.43 kg/m3 | 108 mPa·s and 108.5 mPa·s and 108.7 mPa·s
298.15 K, 101.33 kPa | 1201.29 kg/m3 and 1201.43 kg/m3 | 103.7 mPa·s [middle of 4 runs]
298.15 K, 500 kPa | 1201.61 kg/m3 | 108.6 mPa·s
298.15 K, 25900 kPa | 1213.76 kg/m3 | 142.6 mPa·s
298.15 K, 50800 kPa | 1224.72 kg/m3 | 185 mPa·s
298.15 K, 75900 kPa | 1234.94 kg/m3 | 239.8 mPa·s
298.15 K, 101100 kPa | 1244.42 kg/m3 | 308.3 mPa·s
298.15 K, 126200 kPa | 1253.22 kg/m3 | 393.9 mPa·s
298.15 K, 150600 kPa | 1261.21 kg/m3 | 499.9 mPa·s
298.15 K, 150700 kPa | 1261.23 kg/m3 | 500.6 mPa·s
298.15 K, 175400 kPa | 1268.78 kg/m3 | 634.7 mPa·s
298.15 K, 200900 kPa | 1276.07 kg/m3 | 808.3 mPa·s
303.15 K, 100 kPa | 1197.88 kg/m3 | 84.6 mPa·s
303.15 K, 101.33 kPa | 1197.75 kg/m3 and 1197.88 kg/m3 | 80.6 mPa·s and 80.7 mPa·s
313.15 K, 100 kPa | 1190.78 kg/m3 | 53.5 mPa·s and 53.6 mPa·s
313.15 K, 101.33 kPa | 1190.68 kg/m3 | 51.3 mPa·s
323.15 K, 100 kPa | 1183.79 kg/m3 | 35.6 mPa·s
323.15 K, 101.33 kPa | 1183.67 kg/m3 and 1183.79 kg/m3 | 34.6 mPa·s
323.15 K, 140 kPa | 1183.79 kg/m3 | 36 mPa·s
323.15 K, 10495 kPa | 1189.26 kg/m3 | 39.3 mPa·s
323.15 K, 25446 kPa | 1196.8 kg/m3 | 44.5 mPa·s
323.15 K, 50493 kPa | 1208.59 kg/m3 | 55.5 mPa·s
323.15 K, 75560 kPa | 1219.46 kg/m3 | 68.1 mPa·s
323.15 K, 100566 kPa | 1229.48 kg/m3 | 83.3 mPa·s
323.15 K, 125543 kPa | 1238.76 kg/m3 | 101.5 mPa·s
323.15 K, 150422 kPa | 1247.36 kg/m3 | 123.2 mPa·s
323.15 K, 175463 kPa | 1255.42 kg/m3 | 149.2 mPa·s
323.15 K, 200347 kPa | 1262.9 kg/m3 | 180.1 mPa·s
323.15 K, 225321 kPa | 1269.94 kg/m3 | 216.9 mPa·s
323.15 K, 250139 kPa | 1276.5 kg/m3 | 260.9 mPa·s
333.15 K, 100 kPa | 1176.81 kg/m3 | 25.2 mPa·s and 25.5 mPa·s
333.15 K, 101.33 kPa | 1176.7 kg/m3 and 1176.81 kg/m3 | 24.5 mPa·s
343.15 K, 100 kPa | 1169.87 kg/m3 | 18.4 mPa·s and 18 mPa·s
343.15 K, 101.33 kPa | 1169.79 kg/m3 | 18.1 mPa·s
348.15 K, 100 kPa | 1166.45 kg/m3 | 16.2 mPa·s and 15.9 mPa·s
348.15 K, 101.33 kPa | 1166.45 kg/m3 | –
348.15 K, 11700 kPa | 1172.95 kg/m3 | 17.4 mPa·s
348.15 K, 25200 kPa | 1180.23 kg/m3 | 19.4 mPa·s
348.15 K, 50700 kPa | 1192.94 kg/m3 | 23.3 mPa·s
348.15 K, 75600 kPa | 1204.4 kg/m3 | 27.8 mPa·s
348.15 K, 100600 kPa | 1214.97 kg/m3 | 33 mPa·s
348.15 K, 125600 kPa | 1224.72 kg/m3 | 38.8 mPa·s
348.15 K, 150600 kPa | 1233.78 kg/m3 | 45.6 mPa·s
348.15 K, 175600 kPa | 1242.2 kg/m3 | 53.4 mPa·s
348.15 K, 200600 kPa | 1250.04 kg/m3 | 62.3 mPa·s
348.15 K, 225500 kPa | 1257.34 kg/m3 | 72.6 mPa·s
348.15 K, 250400 kPa | 1264.17 kg/m3 | 84.6 mPa·s
348.15 K, 275300 kPa | 1270.59 kg/m3 | 98.4 mPa·s
348.15 K, 300000 kPa | 1276.57 kg/m3 | 114 mPa·s
353.15 K, 101.33 kPa | 1162.92 kg/m3 | 13.9 mPa·s and 13.8 mPa·s
360.15 K, 101.33 kPa | 1158.27 kg/m3 | –
362.76 K, 101.33 kPa | 1156.51 kg/m3 | –
363.15 K, 101.33 kPa | 1156.11 kg/m3 | –
363.16 K, 101.33 kPa | 1156.22 kg/m3 | –

Source: the NIST ThermoML archive (doi:10.1021/je700370z)
